# ChEMBL document CHEMBL1150977, “A quantitative analysis of kinase inhibitor selectivity” (Nat Biotechnol, 2008)
# Biological target: Tyrosine-protein kinase ABL1 (Homo sapiens, UniProt P00519)
# Sequence (P00519 whole entry): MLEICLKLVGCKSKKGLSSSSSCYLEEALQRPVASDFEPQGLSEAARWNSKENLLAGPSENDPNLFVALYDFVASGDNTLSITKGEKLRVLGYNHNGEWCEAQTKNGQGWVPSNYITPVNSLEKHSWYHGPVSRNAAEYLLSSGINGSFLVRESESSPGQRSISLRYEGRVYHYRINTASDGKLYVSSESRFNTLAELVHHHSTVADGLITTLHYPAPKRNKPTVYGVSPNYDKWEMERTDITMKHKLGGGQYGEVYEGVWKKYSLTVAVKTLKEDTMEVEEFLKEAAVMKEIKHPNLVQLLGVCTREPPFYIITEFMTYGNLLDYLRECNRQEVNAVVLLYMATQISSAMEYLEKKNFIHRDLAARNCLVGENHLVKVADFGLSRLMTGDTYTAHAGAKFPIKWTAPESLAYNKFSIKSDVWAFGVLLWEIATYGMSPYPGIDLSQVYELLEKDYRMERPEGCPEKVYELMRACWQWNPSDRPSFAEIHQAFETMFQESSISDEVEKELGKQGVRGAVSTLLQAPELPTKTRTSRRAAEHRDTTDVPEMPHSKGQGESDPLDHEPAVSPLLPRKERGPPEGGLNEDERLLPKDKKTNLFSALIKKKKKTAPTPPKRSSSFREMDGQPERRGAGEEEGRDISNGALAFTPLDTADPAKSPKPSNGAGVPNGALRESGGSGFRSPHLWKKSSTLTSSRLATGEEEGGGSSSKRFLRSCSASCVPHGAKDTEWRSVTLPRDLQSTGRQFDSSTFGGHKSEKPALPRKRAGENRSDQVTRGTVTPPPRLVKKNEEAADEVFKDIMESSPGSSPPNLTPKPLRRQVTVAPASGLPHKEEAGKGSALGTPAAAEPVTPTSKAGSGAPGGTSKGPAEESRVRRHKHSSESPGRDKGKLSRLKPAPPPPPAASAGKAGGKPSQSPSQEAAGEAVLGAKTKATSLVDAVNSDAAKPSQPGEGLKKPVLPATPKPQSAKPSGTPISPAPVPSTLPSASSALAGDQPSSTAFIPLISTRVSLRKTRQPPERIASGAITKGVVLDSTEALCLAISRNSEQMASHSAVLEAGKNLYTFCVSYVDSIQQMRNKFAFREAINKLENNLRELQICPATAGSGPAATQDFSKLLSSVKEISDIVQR
row,Structure (SMILES),Kd [µM]
1,Oc1ccc(-c2nc(-c3ccncc3)c(-c3ccc(F)cc3)[nH]2)cc1 [SB-202190],> 10
2,COCC(=O)NC/C=C/c1ccc2ncnc(Nc3ccc(Oc4ccc(C)nc4)c(C)c3)c2c1 [CP-724714],> 10
3,NC(=O)c1ccc(-c2nc(-c3ccc4c(c3)OCO4)c(-c3ccccn3)[nH]2)cc1 [SB-431542],> 10

# Biological target: T1, MAP/microtubule affinity-regulating kinase 4 (Homo sapiens, UniProt Q96L34)
# T1 sequence (Q96L34 whole entry): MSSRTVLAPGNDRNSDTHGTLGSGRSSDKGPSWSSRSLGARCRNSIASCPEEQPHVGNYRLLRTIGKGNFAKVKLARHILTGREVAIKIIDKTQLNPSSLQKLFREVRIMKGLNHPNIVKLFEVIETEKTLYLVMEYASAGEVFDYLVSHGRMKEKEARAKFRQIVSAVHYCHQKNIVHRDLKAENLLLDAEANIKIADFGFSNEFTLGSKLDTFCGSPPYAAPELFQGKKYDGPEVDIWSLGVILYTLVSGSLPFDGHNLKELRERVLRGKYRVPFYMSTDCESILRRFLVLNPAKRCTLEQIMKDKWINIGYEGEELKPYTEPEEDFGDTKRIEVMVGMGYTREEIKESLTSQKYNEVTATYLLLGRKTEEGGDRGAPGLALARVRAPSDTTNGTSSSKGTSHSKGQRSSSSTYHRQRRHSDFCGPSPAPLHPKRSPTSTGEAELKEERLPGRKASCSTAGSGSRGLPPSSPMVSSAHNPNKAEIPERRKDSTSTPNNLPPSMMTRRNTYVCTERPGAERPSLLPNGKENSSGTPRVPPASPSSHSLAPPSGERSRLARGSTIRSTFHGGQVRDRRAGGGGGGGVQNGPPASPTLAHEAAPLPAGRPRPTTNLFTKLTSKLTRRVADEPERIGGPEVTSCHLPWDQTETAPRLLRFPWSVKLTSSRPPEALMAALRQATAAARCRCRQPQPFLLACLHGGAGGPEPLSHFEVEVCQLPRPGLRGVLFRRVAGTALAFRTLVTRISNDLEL
row,Structure (SMILES),Kd [µM]
1,CCOc1cc2ncc(C#N)c(Nc3ccc(F)c(Cl)c3)c2cc1NC(=O)/C=C/CN(C)C [PELITINIB],> 10
2,Oc1ccc(-c2nc(-c3ccncc3)c(-c3ccc(F)cc3)[nH]2)cc1 [SB-202190],> 10
3,COCC(=O)NC/C=C/c1ccc2ncnc(Nc3ccc(Oc4ccc(C)nc4)c(C)c3)c2c1 [CP-724714],> 10
4,NC(=O)c1ccc(-c2nc(-c3ccc4c(c3)OCO4)c(-c3ccccn3)[nH]2)cc1 [SB-431542],> 10

# Biological target: T2, Serine/threonine-protein kinase Chk1 (Homo sapiens, UniProt O14757)
# T2 sequence (O14757 whole entry): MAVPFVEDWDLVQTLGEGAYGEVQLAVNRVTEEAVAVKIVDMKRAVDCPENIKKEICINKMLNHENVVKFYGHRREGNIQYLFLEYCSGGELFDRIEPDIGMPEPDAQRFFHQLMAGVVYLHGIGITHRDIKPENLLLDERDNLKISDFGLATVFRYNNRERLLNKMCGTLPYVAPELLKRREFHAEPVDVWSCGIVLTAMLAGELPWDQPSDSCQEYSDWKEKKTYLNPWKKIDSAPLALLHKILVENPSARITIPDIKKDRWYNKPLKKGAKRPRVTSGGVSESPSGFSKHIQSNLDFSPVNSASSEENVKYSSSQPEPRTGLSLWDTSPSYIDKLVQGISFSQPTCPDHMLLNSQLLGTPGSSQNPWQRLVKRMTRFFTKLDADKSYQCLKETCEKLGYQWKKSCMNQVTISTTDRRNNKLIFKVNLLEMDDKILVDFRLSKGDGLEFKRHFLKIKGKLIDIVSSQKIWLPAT
row,Structure (SMILES),Kd [µM]
1,CCOc1cc2ncc(C#N)c(Nc3ccc(F)c(Cl)c3)c2cc1NC(=O)/C=C/CN(C)C [PELITINIB],1.9
2,Oc1ccc(-c2nc(-c3ccncc3)c(-c3ccc(F)cc3)[nH]2)cc1 [SB-202190],> 10
3,COCC(=O)NC/C=C/c1ccc2ncnc(Nc3ccc(Oc4ccc(C)nc4)c(C)c3)c2c1 [CP-724714],> 10
4,NC(=O)c1ccc(-c2nc(-c3ccc4c(c3)OCO4)c(-c3ccccn3)[nH]2)cc1 [SB-431542],> 10

# Biological target: T3, Serine/threonine-protein kinase 17B (Homo sapiens, UniProt O94768)
# T3 sequence (O94768 whole entry): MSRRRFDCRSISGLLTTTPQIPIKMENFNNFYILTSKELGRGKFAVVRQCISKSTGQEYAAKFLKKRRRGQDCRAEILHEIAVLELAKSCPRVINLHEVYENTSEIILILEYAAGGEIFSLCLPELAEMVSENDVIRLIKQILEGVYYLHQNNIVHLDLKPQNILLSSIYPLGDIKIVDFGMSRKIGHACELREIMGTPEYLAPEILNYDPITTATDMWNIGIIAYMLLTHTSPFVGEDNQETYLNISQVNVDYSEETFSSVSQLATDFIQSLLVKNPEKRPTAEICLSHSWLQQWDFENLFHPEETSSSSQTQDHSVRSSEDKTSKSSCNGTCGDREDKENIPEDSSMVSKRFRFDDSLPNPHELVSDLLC
row,Structure (SMILES),Kd [µM]
1,Nc1nc(Nc2ccc(S(N)(=O)=O)cc2)nn1C(=O)c1c(F)cccc1F [JNJ-7706621],> 10
2,Oc1ccc(-c2nc(-c3ccncc3)c(-c3ccc(F)cc3)[nH]2)cc1 [SB-202190],> 10
3,COCC(=O)NC/C=C/c1ccc2ncnc(Nc3ccc(Oc4ccc(C)nc4)c(C)c3)c2c1 [CP-724714],> 10
4,NC(=O)c1ccc(-c2nc(-c3ccc4c(c3)OCO4)c(-c3ccccn3)[nH]2)cc1 [SB-431542],> 10

# Biological target: Tyrosine-protein kinase FRK (Homo sapiens, UniProt P42685)
# Sequence (P42685 whole entry): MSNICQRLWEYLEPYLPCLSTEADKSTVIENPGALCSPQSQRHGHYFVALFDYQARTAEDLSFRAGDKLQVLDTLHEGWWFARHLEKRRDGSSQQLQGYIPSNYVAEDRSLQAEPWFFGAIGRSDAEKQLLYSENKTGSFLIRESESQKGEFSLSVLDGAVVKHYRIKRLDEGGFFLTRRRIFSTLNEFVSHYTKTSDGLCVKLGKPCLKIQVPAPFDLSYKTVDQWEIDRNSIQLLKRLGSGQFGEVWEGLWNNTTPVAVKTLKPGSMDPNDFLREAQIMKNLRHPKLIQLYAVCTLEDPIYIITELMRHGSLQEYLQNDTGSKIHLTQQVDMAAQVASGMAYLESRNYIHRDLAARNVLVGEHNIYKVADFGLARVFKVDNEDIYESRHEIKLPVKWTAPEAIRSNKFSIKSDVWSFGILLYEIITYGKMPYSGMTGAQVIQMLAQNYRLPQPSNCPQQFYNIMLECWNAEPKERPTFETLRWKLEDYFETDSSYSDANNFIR
row,Structure (SMILES),Kd [µM]
1,Nc1nc(Nc2ccc(S(N)(=O)=O)cc2)nn1C(=O)c1c(F)cccc1F [JNJ-7706621],> 10
2,Oc1ccc(-c2nc(-c3ccncc3)c(-c3ccc(F)cc3)[nH]2)cc1 [SB-202190],3.1
3,COCC(=O)NC/C=C/c1ccc2ncnc(Nc3ccc(Oc4ccc(C)nc4)c(C)c3)c2c1 [CP-724714],> 10
4,NC(=O)c1ccc(-c2nc(-c3ccc4c(c3)OCO4)c(-c3ccccn3)[nH]2)cc1 [SB-431542],> 10

# Biological target: T4, Bone morphogenetic protein receptor type-2 (Homo sapiens, UniProt Q13873)
# T4 sequence (Q13873 whole entry): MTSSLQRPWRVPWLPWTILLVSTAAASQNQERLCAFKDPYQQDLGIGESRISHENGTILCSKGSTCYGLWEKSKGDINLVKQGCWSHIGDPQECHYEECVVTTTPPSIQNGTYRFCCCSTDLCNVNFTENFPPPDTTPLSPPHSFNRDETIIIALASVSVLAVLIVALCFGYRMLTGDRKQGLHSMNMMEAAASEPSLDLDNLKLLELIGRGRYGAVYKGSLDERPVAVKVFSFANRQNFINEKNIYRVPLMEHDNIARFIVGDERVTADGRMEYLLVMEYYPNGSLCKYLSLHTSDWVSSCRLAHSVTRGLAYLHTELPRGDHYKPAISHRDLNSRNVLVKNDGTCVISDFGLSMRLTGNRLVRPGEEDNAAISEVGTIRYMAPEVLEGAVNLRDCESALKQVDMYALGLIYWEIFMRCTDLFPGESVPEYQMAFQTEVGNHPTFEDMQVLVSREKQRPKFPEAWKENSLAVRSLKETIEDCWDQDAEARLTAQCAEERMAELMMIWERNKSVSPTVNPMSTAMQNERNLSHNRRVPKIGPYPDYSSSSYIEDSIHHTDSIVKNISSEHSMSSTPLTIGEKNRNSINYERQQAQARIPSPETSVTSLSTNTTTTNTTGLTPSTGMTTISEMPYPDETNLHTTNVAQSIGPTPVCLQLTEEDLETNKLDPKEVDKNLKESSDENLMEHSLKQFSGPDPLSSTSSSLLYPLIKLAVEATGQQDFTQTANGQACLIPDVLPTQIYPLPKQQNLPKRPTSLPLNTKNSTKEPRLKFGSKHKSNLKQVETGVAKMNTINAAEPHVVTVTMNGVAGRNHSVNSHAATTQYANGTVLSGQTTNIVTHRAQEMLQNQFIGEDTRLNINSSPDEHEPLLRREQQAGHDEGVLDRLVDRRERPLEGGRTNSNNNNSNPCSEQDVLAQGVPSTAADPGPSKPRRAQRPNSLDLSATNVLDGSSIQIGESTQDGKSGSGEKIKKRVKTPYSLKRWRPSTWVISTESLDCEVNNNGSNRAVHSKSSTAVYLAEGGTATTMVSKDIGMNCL
row,Structure (SMILES),Kd [µM]
1,CCOc1cc2ncc(C#N)c(Nc3ccc(F)c(Cl)c3)c2cc1NC(=O)/C=C/CN(C)C [PELITINIB],> 10
2,Oc1ccc(-c2nc(-c3ccncc3)c(-c3ccc(F)cc3)[nH]2)cc1 [SB-202190],> 10
3,COCC(=O)NC/C=C/c1ccc2ncnc(Nc3ccc(Oc4ccc(C)nc4)c(C)c3)c2c1 [CP-724714],> 10
4,NC(=O)c1ccc(-c2nc(-c3ccc4c(c3)OCO4)c(-c3ccccn3)[nH]2)cc1 [SB-431542],> 10

# Biological target: Dual specificity protein kinase CLK2 (Homo sapiens, UniProt P49760)
# Sequence (P49760 whole entry): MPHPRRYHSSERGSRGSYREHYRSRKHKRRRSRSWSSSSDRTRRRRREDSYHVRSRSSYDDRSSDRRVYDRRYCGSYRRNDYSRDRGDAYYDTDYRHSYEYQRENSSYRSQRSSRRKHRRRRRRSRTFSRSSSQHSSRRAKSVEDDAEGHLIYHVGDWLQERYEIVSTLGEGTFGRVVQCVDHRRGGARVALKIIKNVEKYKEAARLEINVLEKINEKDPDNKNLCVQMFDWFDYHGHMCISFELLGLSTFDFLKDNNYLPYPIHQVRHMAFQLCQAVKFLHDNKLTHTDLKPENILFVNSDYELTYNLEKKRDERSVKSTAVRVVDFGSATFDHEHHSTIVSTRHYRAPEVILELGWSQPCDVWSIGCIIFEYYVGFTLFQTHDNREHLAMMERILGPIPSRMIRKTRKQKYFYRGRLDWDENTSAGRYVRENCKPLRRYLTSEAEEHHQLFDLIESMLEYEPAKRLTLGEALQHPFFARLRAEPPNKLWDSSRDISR
row,Structure (SMILES),Kd [µM]
1,CCOc1cc2ncc(C#N)c(Nc3ccc(F)c(Cl)c3)c2cc1NC(=O)/C=C/CN(C)C [PELITINIB],1.8
2,Oc1ccc(-c2nc(-c3ccncc3)c(-c3ccc(F)cc3)[nH]2)cc1 [SB-202190],> 10
3,COCC(=O)NC/C=C/c1ccc2ncnc(Nc3ccc(Oc4ccc(C)nc4)c(C)c3)c2c1 [CP-724714],> 10
4,NC(=O)c1ccc(-c2nc(-c3ccc4c(c3)OCO4)c(-c3ccccn3)[nH]2)cc1 [SB-431542],> 10

# Biological target: Phosphorylase b kinase gamma catalytic chain, skeletal muscle/heart isoform (Homo sapiens, UniProt Q16816)
# Sequence (Q16816 whole entry, canonical isoform): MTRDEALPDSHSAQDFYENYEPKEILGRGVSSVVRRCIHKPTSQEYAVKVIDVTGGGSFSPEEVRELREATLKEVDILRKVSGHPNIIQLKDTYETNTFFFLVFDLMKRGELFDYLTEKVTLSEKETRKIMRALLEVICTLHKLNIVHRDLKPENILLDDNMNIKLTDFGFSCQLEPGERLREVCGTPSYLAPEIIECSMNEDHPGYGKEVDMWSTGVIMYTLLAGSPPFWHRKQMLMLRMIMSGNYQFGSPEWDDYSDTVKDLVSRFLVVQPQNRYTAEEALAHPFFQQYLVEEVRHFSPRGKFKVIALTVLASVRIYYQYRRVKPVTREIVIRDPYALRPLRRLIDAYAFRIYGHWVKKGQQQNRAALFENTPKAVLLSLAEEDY
row,Structure (SMILES),Kd [µM]
1,Nc1nc(Nc2ccc(S(N)(=O)=O)cc2)nn1C(=O)c1c(F)cccc1F [JNJ-7706621],> 10
2,Oc1ccc(-c2nc(-c3ccncc3)c(-c3ccc(F)cc3)[nH]2)cc1 [SB-202190],> 10
3,COCC(=O)NC/C=C/c1ccc2ncnc(Nc3ccc(Oc4ccc(C)nc4)c(C)c3)c2c1 [CP-724714],> 10
4,NC(=O)c1ccc(-c2nc(-c3ccc4c(c3)OCO4)c(-c3ccccn3)[nH]2)cc1 [SB-431542],> 10

# Biological target: Tyrosine-protein kinase Fyn (Homo sapiens, UniProt P06241)
# Sequence (P06241 whole entry): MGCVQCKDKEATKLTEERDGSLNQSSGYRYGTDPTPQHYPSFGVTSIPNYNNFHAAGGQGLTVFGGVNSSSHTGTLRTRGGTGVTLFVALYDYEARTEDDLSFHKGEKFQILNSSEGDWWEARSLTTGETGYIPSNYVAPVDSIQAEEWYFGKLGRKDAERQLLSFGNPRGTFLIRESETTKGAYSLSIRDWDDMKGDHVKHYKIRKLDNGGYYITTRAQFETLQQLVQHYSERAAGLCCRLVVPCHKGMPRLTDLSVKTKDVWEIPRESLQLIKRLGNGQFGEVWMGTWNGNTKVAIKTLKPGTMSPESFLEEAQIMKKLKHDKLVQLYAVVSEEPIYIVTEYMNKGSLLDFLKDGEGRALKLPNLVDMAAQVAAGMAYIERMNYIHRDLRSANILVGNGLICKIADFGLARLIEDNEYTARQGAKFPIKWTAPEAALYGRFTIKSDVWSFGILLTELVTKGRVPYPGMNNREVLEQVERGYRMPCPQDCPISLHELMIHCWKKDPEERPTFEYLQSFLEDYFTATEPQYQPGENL
row,Structure (SMILES),Kd [µM]
1,Oc1ccc(-c2nc(-c3ccncc3)c(-c3ccc(F)cc3)[nH]2)cc1 [SB-202190],> 10
2,COCC(=O)NC/C=C/c1ccc2ncnc(Nc3ccc(Oc4ccc(C)nc4)c(C)c3)c2c1 [CP-724714],> 10
3,NC(=O)c1ccc(-c2nc(-c3ccc4c(c3)OCO4)c(-c3ccccn3)[nH]2)cc1 [SB-431542],> 10

# Biological target: LIM domain kinase 2 (Homo sapiens, UniProt P53671)
# Sequence (P53671 whole entry, the tested form may be a part): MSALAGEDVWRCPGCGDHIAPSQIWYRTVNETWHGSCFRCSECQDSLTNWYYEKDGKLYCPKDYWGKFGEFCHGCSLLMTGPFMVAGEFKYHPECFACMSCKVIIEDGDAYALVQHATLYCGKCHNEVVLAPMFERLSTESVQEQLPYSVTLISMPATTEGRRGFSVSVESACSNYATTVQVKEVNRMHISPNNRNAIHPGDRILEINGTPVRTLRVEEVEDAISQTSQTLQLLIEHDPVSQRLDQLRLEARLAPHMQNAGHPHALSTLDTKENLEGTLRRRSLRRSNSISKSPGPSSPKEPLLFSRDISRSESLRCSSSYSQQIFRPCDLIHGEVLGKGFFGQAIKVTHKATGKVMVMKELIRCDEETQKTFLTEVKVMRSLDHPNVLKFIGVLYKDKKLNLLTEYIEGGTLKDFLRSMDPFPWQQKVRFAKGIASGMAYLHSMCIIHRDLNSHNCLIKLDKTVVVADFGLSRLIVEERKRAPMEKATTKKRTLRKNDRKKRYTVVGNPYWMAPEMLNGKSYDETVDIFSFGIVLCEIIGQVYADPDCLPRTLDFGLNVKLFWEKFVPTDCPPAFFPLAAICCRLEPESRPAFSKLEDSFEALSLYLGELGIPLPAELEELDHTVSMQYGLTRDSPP
row,Structure (SMILES),Kd [µM]
1,CCOc1cc2ncc(C#N)c(Nc3ccc(F)c(Cl)c3)c2cc1NC(=O)/C=C/CN(C)C [PELITINIB],> 10
2,Oc1ccc(-c2nc(-c3ccncc3)c(-c3ccc(F)cc3)[nH]2)cc1 [SB-202190],> 10
3,COCC(=O)NC/C=C/c1ccc2ncnc(Nc3ccc(Oc4ccc(C)nc4)c(C)c3)c2c1 [CP-724714],> 10
4,NC(=O)c1ccc(-c2nc(-c3ccc4c(c3)OCO4)c(-c3ccccn3)[nH]2)cc1 [SB-431542],> 10
5,CCN1CCN(Cc2ccc(NC(=O)Nc3ccc(Oc4cc(NC)ncn4)cc3)cc2C(F)(F)F)CC1 [AST-487],> 10
